# From ChEMBL document CHEMBL1133274 (Bioorg Med Chem Lett, 2000)
# Tests used:
# Homo sapiens [1] = species on record: Homo sapiens; test: Cytotoxicity of compound was determined against Lo Vo colon cancer cells; format: functional, cell-based; conditions: Cancer cell lines
# Homo sapiens [2] = species on record: Homo sapiens; test: Cytotoxicity of compound was determined against Lo Vo colon cancer cells in presence of GUS from Escherichia coli; format: functional, cell-based; conditions: Cancer cell lines
compound,measurement,setting,value
O=C(O)[C@@H]1O[C@@H](Oc2ccc(COC(=O)N(CCCl)CCCl)cc2[N+](=O)[O-])[C@@H](O)[C@@H](O)[C@@H]1O,IC50,Homo sapiens [1],> 400 µM
same,IC50,Homo sapiens [2],95 µM
